In PubChem BioAssay (NCI):
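Following 48 hours of exposure in 96-well plates, responses at five concentrations were used to interpolate endpoints linearly. Here, GI50 denotes the concentration required for 50% inhibition of growth. TGI is the concentration that stops growth completely.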

Legend:
Experiment in all cases: NCI tumour cell line growth inhibition, 48 h
[1] = system: 786-0 renal
[2] = system: A498 renal
[3] = system: A549 NSCLC
[4] = system: ACHN renal
[5] = system: BT-549 breast
[6] = system: CAKI-1 renal
[7] = system: CCRF-CEM leukemia
[8] = system: COLO 205 colon
[9] = system: DU-145 prostate
[10] = system: EKVX NSCLC
[11] = system: HCC-2998 colon
[12] = system: HCT-116 colon
[13] = system: HCT-15 colon
[14] = system: HL-60(TB) leukemia
[15] = system: HOP-62 NSCLC
[16] = system: HOP-92 NSCLC
[17] = system: HS 578T breast
[18] = system: HT29 colon
[19] = system: K-562 leukemia
[20] = system: KM12 colon
[21] = system: LOX IMVI melanoma
[22] = system: M14 melanoma
[23] = system: MALME-3M melanoma
[24] = system: MCF7 breast
[25] = system: MDA-MB-231 breast
[26] = system: MDA-MB-435
[27] = system: MOLT-4 leukemia
[28] = system: NCI-H226 lung
[29] = system: NCI-H23 lung
[30] = system: NCI-H460 lung
[31] = system: NCI/ADR-RES ovarian
[32] = system: OVCAR-3 ovarian
[33] = system: OVCAR-4 ovarian
[34] = system: OVCAR-5 ovarian
[35] = system: OVCAR-8 ovarian
[36] = system: PC-3 prostate
[37] = system: RXF 393 renal
[38] = system: SF-268 CNS
[39] = system: SF-295 CNS
[40] = system: SF-539 CNS
[41] = system: SK-MEL-2 melanoma
[42] = system: SK-MEL-28 melanoma
[43] = system: SK-MEL-5 melanoma
[44] = system: SK-OV-3 ovarian
[45] = system: SN12C renal
[46] = system: SNB-19 CNS
[47] = system: SNB-75 CNS
[48] = system: SR leukemia
[49] = system: SW-620 colon
[50] = system: T-47D breast
[51] = system: TK-10 renal
[52] = system: U251 CNS
[53] = system: UACC-257 melanoma
[54] = system: UACC-62 melanoma
[55] = system: IGROV1 ovarian
[56] = system: NCI-H522 lung
[57] = system: RPMI-8226 leukemia
[58] = system: UO-31 renal

Molecule `O=C(NNS(=O)(=O)c1ccc(F)cc1)c1cccnc1Nc1ccc(Cl)cc1Cl` has a GI50 [1] of 23 µM, a TGI [1] of 53.6 µM and a GI50 [2] of 17.3 µM. The TGI [2] was 36.5 µM, the GI50 [3] was 17.2 µM and the TGI [3] was 41 µM. It also gave a GI50 [4] of 46.1 µM, a TGI [4] of over 100 µM and a GI50 [5] of 36 µM. The TGI [5] was over 100 µM, the GI50 [6] was 31.2 µM and the TGI [6] was over 100 µM. For the same molecule, the GI50 [7] was 21.1 µM, the TGI [7] was over 100 µM and the GI50 [8] was 16.4 µM. The TGI [8] was 50.8 µM, the GI50 [9] was 22.9 µM and the TGI [9] was 55.4 µM. The GI50 [10] was 29.5 µM, the TGI [10] was over 100 µM and the GI50 [11] was 30 µM. For the same molecule, the TGI [11] was over 100 µM, the GI50 [12] was 30.3 µM and the TGI [12] was over 100 µM. For the same molecule, the GI50 [13] was 26.8 µM, the TGI [13] was 83.5 µM and the GI50 [14] was 25.2 µM. The TGI [14] was 62.3 µM, the GI50 [15] was 30.9 µM and the TGI [15] was 84.5 µM. It also gave a GI50 [16] of 15.4 µM, a TGI [16] of 36.1 µM and a GI50 [17] of 27.9 µM. It also gave a TGI [17] of over 100 µM, a GI50 [18] of 22.1 µM and a TGI [18] of 57.8 µM. The GI50 [19] was 20.1 µM, the TGI [19] was 83.2 µM and the GI50 [20] was 23 µM. For the same molecule, the TGI [20] was 48.5 µM, the GI50 [21] was 32.1 µM and the TGI [21] was over 100 µM. The GI50 [22] was 46.5 µM, the TGI [22] was over 100 µM and the GI50 [23] was 34.7 µM. For the same molecule, the TGI [23] was over 100 µM, the GI50 [24] was 31.5 µM and the TGI [24] was over 100 µM. For the same molecule, the GI50 [25] was 28.8 µM, the TGI [25] was over 100 µM and the GI50 [26] was 84.4 µM. It also gave a TGI [26] of over 100 µM, a GI50 [27] of 22.9 µM and a TGI [27] of over 100 µM. The GI50 [28] was 29.6 µM, the TGI [28] was 96.9 µM and the GI50 [29] was 36.5 µM. It also gave a TGI [29] of over 100 µM, a GI50 [30] of 31.4 µM and a TGI [30] of over 100 µM. For the same molecule, the GI50 [31] was 39.8 µM, the TGI [31] was over 100 µM and the GI50 [32] was 29.7 µM. The TGI [32] was 94.5 µM, the GI50 [33] was 38 µM and the TGI [33] was over 100 µM. For the same molecule, the GI50 [34] was 52.2 µM, the TGI [34] was over 100 µM and the GI50 [35] was 26.9 µM. It also gave a TGI [35] of over 100 µM, a GI50 [36] of 14.8 µM and a TGI [36] of 32.1 µM. For the same molecule, the GI50 [37] was 11.4 µM, the TGI [37] was 27.6 µM and the GI50 [38] was 45.2 µM. It also gave a TGI [38] of over 100 µM, a GI50 [39] of 36.9 µM and a TGI [39] of over 100 µM. It also gave a GI50 [40] of 26 µM, a TGI [40] of 73.7 µM and a GI50 [41] of 42.3 µM. It also gave a TGI [41] of over 100 µM, a GI50 [42] of 89.2 µM and a TGI [42] of over 100 µM. It also gave a GI50 [43] of 25.3 µM, a TGI [43] of 86 µM and a GI50 [44] of 38.1 µM. The TGI [44] was over 100 µM, the GI50 [45] was 17.6 µM and the TGI [45] was 31.7 µM. It also gave a GI50 [46] of 29.2 µM, a TGI [46] of over 100 µM and a GI50 [47] of 25.5 µM. The TGI [47] was over 100 µM, the GI50 [48] was 22.9 µM and the TGI [48] was 67.6 µM. It also gave a GI50 [49] of 29.1 µM, a TGI [49] of over 100 µM and a GI50 [50] of 18.7 µM. It also gave a TGI [50] of 98.1 µM, a GI50 [51] of 33.8 µM and a TGI [51] of over 100 µM. The GI50 [52] was 29.1 µM, the TGI [52] was over 100 µM and the GI50 [53] was 11.8 µM. It also gave a TGI [53] of 51.9 µM, a GI50 [54] of 46 µM and a TGI [54] of over 100 µM.

In the case of `CN(/N=C\c1ccc2ccccc2c1)C1=NCCN1`, the TGI [1] is reported as 47.4 µM, the TGI [2] is reported as 28.6 µM and the TGI [3] is reported as 36.3 µM. It also gave a TGI [4] of 60 µM, a TGI [5] of 29.9 µM and a TGI [6] of 27.4 µM. The TGI [7] was 65 µM, the TGI [8] was 31.9 µM and the TGI [9] was over 100 µM. For the same molecule, the TGI [10] was 63.3 µM, the TGI [11] was 29.7 µM and the TGI [12] was 31.8 µM. The TGI [13] was over 100 µM, the TGI [14] was 33 µM and the TGI [15] was 40.7 µM. It also gave a TGI [16] of 9.02 µM, a TGI [17] of 47.5 µM and a TGI [18] of 31.3 µM. The TGI [55] was 41.6 µM, the TGI [19] was 45.2 µM and the TGI [20] was 32.8 µM. The TGI [21] was 25.4 µM, the TGI [23] was 29.7 µM and the TGI [24] was 38.7 µM. The TGI [25] was 36.1 µM, the TGI [26] was 30.1 µM and the TGI [27] was 40.9 µM. It also gave a TGI [28] of 37.8 µM, a TGI [29] of over 100 µM and a TGI [30] of 30.6 µM. It also gave a TGI [56] of 32 µM, a TGI [31] of 82.1 µM and a TGI [32] of 99.6 µM. For the same molecule, the TGI [33] was 73 µM, the TGI [34] was over 100 µM and the TGI [35] was over 100 µM. For the same molecule, the TGI [57] was 48 µM, the TGI [37] was 23.9 µM and the TGI [38] was 84.1 µM. It also gave a TGI [39] of 30.4 µM, a TGI [40] of 32.8 µM and a TGI [41] of 30.9 µM. It also gave a TGI [42] of 28.4 µM, a TGI [43] of 28.6 µM and a TGI [44] of over 100 µM. For the same molecule, the TGI [47] was 41.5 µM, the TGI [48] was 56.6 µM and the TGI [49] was 41.7 µM. For the same molecule, the TGI [50] was 75.9 µM, the TGI [51] was 28.5 µM and the TGI [52] was 56.5 µM. The TGI [53] was 29.5 µM, the TGI [54] was 38.8 µM and the TGI [58] was 31.7 µM.
